The test system of series [1] is H. pylori clinical isolates KA1-KA7 and ATCC 43504. In words: Anti-Helicobacter pylori activity, disk diffusion method. Type of series: cell-based. Particulars: for susceptibility by disc diffusion (in words): all the isolates of H. pylori. How it is done:
Clinical isolates were symbolized from KA1 to KA7. Isolates were grown in Brucella agar plates (Difco, Detroit, Mich., USA) containing 10% v/v sheep serum at 37° C. Identification was carried out using Gram stain and catalase, oxidase and urea hydrolysis activities. Helicobacter pylori ATCC 43504 was used as control. Determination of the amino acid-sulfanilamide hybrid activity against H. pylori was carried out using disk diffusion method (McNulty C, Owen R., Tompkins […]., Price A., Smith G. and […]. (2002). Helicobacter pylori susceptibility testing by disc diffusion. Journal of Antimicrobial Chemotherapy, 49: 601-609). The amino acid-sulfanilamide hybrid compound was dissolved in 2% Tween (v/v), in order to obtain final concentration of 2 mg/ml.
A general note: A growth-free zone around the sample is the usual read-out of agar diffusion tests.

The subject of series [2] is liver and kidney functions of rats. Nature of the series: Effect on liver and kidney functions. Type of series: in vivo, Male Wister rats. Conditions: 100 mg/kg orally for 15 days. How it is done:
Male Wister rats were divided into 2 equal groups each of 10 rats. The 1st group was left as a control and administrated the vehicle orally, while the 2nd group was orally administrated the synthesized compound in a dose of 100 mg/kg for 15 days. After the examination period, 6 hr after the last dose blood samples were collected from the orbital plexus of rats. Samples were left to clot at room temperature for 30 min then centrifuged at 1000 rpm for 20 min. The collected sera were used for determination of the activity of both (AST) aspirate aminotransferase and (ALT) alanine aminotransferase as liver markers. In addition, levels of blood urea, serum creatinine were also estimated as kidney markers ([…]., Al-Jaber N. A., Moses […]. and Zain M. E. (2013). Antiulcerogenic Activities of the Extracts and Isolated Flavonoids of Euphorbia cuneata Vahl. Phytother. Res. 27: 126-130).

Series [3] deals with H. pylori clinical isolates KA1-KA7 and ATCC 43504. Nature of the series: Minimum inhibitory concentration (MIC), broth microdilution assay. Type of series: cell-based. Conditions: Helicobacter pylori. How it is done: A total of seven clinical isolates of H. pylori were isolated from 19 biopsies received from patients diagnosed with gastritis or peptic ulcer disease at Al-Kasr Al-Ainy hospital, Cairo, Egypt. Clinical isolates were symbolized from KA1 to KA7. Isolates were grown in Brucella agar plates (Difco, Detroit, Mich., USA) containing 10% v/v sheep serum at 37° C.
Identification was carried out using Gram stain and catalase, oxidase and urea hydrolysis activities. Helicobacter pylori ATCC 43504 was used as control.
The Minimum inhibitory concentration (MIC) was carried out by the broth microdilution assay (EUCAST, 2003). A total of 100 μL of BHI broth supplemented with 10% defibrinated sheep blood inoculated with 6×10^8 H. pylori (McFarland turbidity standard 2) and 100 μL A of serial dilutions of amino acid-sulfanilamide hybrid compound dissolved in 2% Tween (v/v) was added to each well in the microplate, to reach final concentrations of 12.5; 25; 50; 100; 200; 400 and 800 μg/ml. The microplate was incubated at 37° C. under microaerophilic conditions in an atmosphere of 5-15% O2 and 5-10% CO2, for 48-72 h. After incubation, the plates were visually examined, the optical density was determined at 450 nm and each well was replicated in blood agar (Mueller-Hinton agar with 5% sheep blood), to determine the MIC.
For orientation: Dilution methods test growth across graded concentrations, often in twofold steps.

The subject of series [4] is absolute alcohol-induced ulcer in rats. In words: Antiulcerogenic activity, absolute ethanol-induced ulcer model. Type of series: in vivo, male Wistar rats. As for the experimental part: Evaluation of the anti-ulcerogenic activity was carried out using absolute ethanol-induced ulcer model (Bighettia A. E., Antonio M. A., Kohna L. K., Rehdera V. L. G., Foglioa M. A., Possentia A., Vilelaa L., Carvalho J. E. (2005). Antiulcerogenic activity of a crude hydroalcoholic extract and coumarin isolated from Mikania laevigata Schultz Bip. Phytomedicine, 12, 72-77). Thirty male Wistar rats were divided into 5 groups each of 6 rats. Group 1 received the vehicle and served as control, group 2 received ranitidine (100 mg/kg) and served as standard, groups 3, 4 and 5 received the synthesized compound at doses 25, 50 and 100 mg/kg respectively.
Rats of all groups were fasted for 24 h then all medications were administered orally. One hour after treatment, the animals received an oral dose of absolute ethanol (1 ml/200 g) and then sacrificed one hour later, by ether inhalation, the stomachs were rapidly removed, opened along their greater curvature and gently rinsed under running tap water.
Number of lesions in the glandular part of the stomach were measured under an illuminated magnifying microscope (10×). Long lesions were counted and their lengths were measured. Petechial lesions were counted, and then each five petechial lesions were taken as 1 mm of ulcer.
The lesion scores: The mucosal lesions were quantified by the scoring system (0-5) 0=no damage, 1=Local edema and inflammation without ulcers; 2=One ulcer without inflammation; 3=one to two ulcers with inflammation & lesion diameter <1 cm; 4=More than two ulcers with lesion diameter 1-2 cm; 5=Sever ulceration with lesion diameter >2 cm (Morris et al., 1989).
Ulcer index: To calculate the ulcer index (mm), the sum of the total length of long ulcers and petechial lesions in each group of rats was divided by its number. The curative ratio was determined according to the formula: % Protection of control ulcer=Control UI−Test UI/Control UI×100

The mark [5] stands for this setting: rat serum, 6 hr after last dose, mean ± SD, n=10.

In brackets after ≈: the same amount, converted by molar mass. Marks after values point to notes of the source that are not given here.

In the case of `CC1(C)S[C@@H]2[C@H](NC(=O)[C@H](N)c3ccc(O)cc3)C(=O)N2[C@H]1C(=O)O` [Amoxicillin, amoxicillin], the Inhibition zone in series [1] (H. pylori ATCC 43504, disk (30 μg)) is 33 mm; in series [1] (H. pylori KA1, disk (30 μg)) it was 22 mm; in series [1] (H. pylori KA2, disk (30 μg)) it was 23 mm; in series [1] (H. pylori KA3, disk (30 μg)) it was 24 mm; in series [1] (H. pylori KA4, disk (30 μg)) it was 23 mm; in series [1] (H. pylori KA5, disk (30 μg)) it was 25 mm. In addition, the Inhibition zone in series [1] (H. pylori KA6, disk (30 μg)) was 26 mm; in series [1] (H. pylori KA7, disk (30 μg)), 27 mm. In addition, the “susceptibility by disc diffusion (in words)” value (“susceptibility” below) in series [1] is on record as “sensitive”.
The term MIC denotes the smallest concentration in the dilution series that meets the test's criterion for growth inhibition. A lower MIC goes with greater potency. In series [2] (setting [5]), `CC(C)CC(NCC(=O)Nc1ccc(S(N)(=O)=O)cc1)C(=O)O` (stereo not shown) [Compound 5, 4-Methyl-2-[2-oxo-2-(4-sulfamoylphenylamino)ethylamino]pentanoic acid] showed an ALT of 38.67 ± 0.22 U/l. This molecule also displayed an AST in series [2] (setting [5]) of 63.23 ± 0.39 U/l. The molecule further displayed a Creatinine in series [2] (setting [5]) of 0.85 ± 0.02 mg/dL. Moreover, the hepatotoxic manifestation entry in series [2] (rats) was “didn't reveal hepatotoxic manifestation”. For the same molecule, the nephrotoxic manifestations entry in series [2] (rats) is reported as “no apparent nephrotoxic manifestations”. Moreover, the “Blood Urea” value in series [2] (rats, 6 hr after last dose, mean ± SD, n=10) was 65.50 ± 1.9 mg/dL. Besides, the MIC in series [3] (ATCC43504, H. pylori ATCC 43504) was determined as 50 µg/mL (≈ 146 µM); in series [3] (ATCC43504, H. pylori KA1) it was 50 µg/mL (≈ 146 µM); in series [3] (ATCC43504, H. pylori KA2), 50 µg/mL (≈ 146 µM); in series [3] (ATCC43504, H. pylori KA3), 50 µg/mL (≈ 146 µM); in series [3] (ATCC43504, H. pylori KA4), 50 µg/mL (≈ 146 µM); in series [3] (ATCC43504, H. pylori KA5), 50 µg/mL (≈ 146 µM). In addition, the MIC in series [3] (ATCC43504, H. pylori KA6) turned out to be 25 µg/mL (≈ 72.8 µM); in series [3] (ATCC43504, H. pylori KA7), 12.5 µg/mL (≈ 36.4 µM). For the same molecule, the “% protection (of control ulcer)” value turned out to be 16.7% in series [4] (oral 25 mg/kg), 59% in series [4] (oral 50 mg/kg) and 66.7% in series [4] (oral 100 mg/kg). Further, the figures for the “score (lesion score 0-5)” value in series [4] (oral 25 mg/kg), in series [4] (oral 50 mg/kg) and in series [4] (oral 100 mg/kg) were 2.2, 1.6 and 1.4, respectively. Also, the no of ulcers is given as 11.1* in series [4] (oral 25 mg/kg, mean, n=6); 8** in series [4] (oral 50 mg/kg, mean, n=6); 6.2*** in series [4] (oral 100 mg/kg, mean, n=6). In addition, the “anti-ulcerogenic activity (in words)” value in series [4] (oral 25-100 mg/kg) is “potent dose dependent anti-ulcerogenic activity”. Also, the Inhibition zone came out at 16 mm in series [1] (H. pylori ATCC 43504, disk (2 mg)); 18 mm in series [1] (H. pylori KA1, disk (2 mg)); 15 mm in series [1] (H. pylori KA2, disk (2 mg)); 16 mm in series [1] (H. pylori KA3, disk (2 mg)); 15 mm in series [1] (H. pylori KA4, disk (2 mg)); 15 mm in series [1] (H. pylori KA5, disk (2 mg)). Moreover, the Inhibition zone amounted to 17 mm in series [1] (H. pylori KA6, disk (2 mg)) and 19 mm in series [1] (H. pylori KA7, disk (2 mg)). Moreover, the “susceptibility” value in series [1] is recorded as “sensitive”.
As for `CC[C@H]1OC(=O)[C@H](C)[C@@H](O[C@H]2C[C@@](C)(OC)[C@@H](O)[C@H](C)O2)[C@H](C)[C@@H](O[C@@H]2O[C@H](C)C[C@H](N(C)C)[C@H]2O)[C@](C)(O)C[C@@H](C)C(=O)[C@H](C)[C@@H](O)[C@]1(C)O` [Erythromycin, erythromycin], the Inhibition zone came out at 29 mm in series [1] (H. pylori ATCC 43504, disk (15 μg)); 21 mm in series [1] (H. pylori KA1, disk (15 μg)); 22 mm in series [1] (H. pylori KA2, disk (15 μg)); 24 mm in series [1] (H. pylori KA3, disk (15 μg)); 23 mm in series [1] (H. pylori KA4, disk (15 μg)); 21 mm in series [1] (H. pylori KA5, disk (15 μg)). The Inhibition zone in series [1] (H. pylori KA6, disk (15 μg)) is 25 mm; in series [1] (H. pylori KA7, disk (15 μg)), 24 mm. For the same molecule, in series [1], the “susceptibility” value is on record as “sensitive”.
In the case of `CNC(=C[N+](=O)[O-])NCCSCc1ccc(CN(C)C)o1` [Ranitidine, ranitidine, reference compound], in series [4] (oral 100 mg/kg), the “% protection (of control ulcer)” value is 45.05% and the “score (lesion score 0-5)” value was 2.2. Besides, in series [4] (oral 100 mg/kg, mean, n=6), the no of ulcers is on record as 6.9*** and the ulcer index was 6.0* mm.

The values above are taken from patent US8933267B2, “Compounds for use as anti-ulcer agent and/or anti-Helicobacter pylori agent and pharmaceutical compositions thereof” (King Saud University, priority 2013, dated 2015).
